# Data from patent US20240351977A1, “Compositions and Methods For Reducing Immune Intolerance and Treating Autoimmune Disorders” (Lapix Therapeutics, Inc., priority 2021, published 2024).
# Tests used:
# [1] = test system: FoxP3^+/TIM3^+ CD4 T-cells; assay: In vitro dose-response analysis in murine T-cells (splenocytes, flow cytometry); format: cell-based, C57BL/6 mice; conditions: for change in FoxP3+/TIM3+ CD4 T-cells with dose: 48 μM to 1.5 μM; for EC50 / EC90: Mus musculus, T-cell, increase in percent FoxP3+/TIM3+ CD4 T-cells, 30:70 drug:DMPC liposomes, 4-parameter model, Emax fixed to 7.9%; for EC50: read-out: EC50 mean (SE); for EC90: read-out: EC90 mean (SE)
# Method: Compound 1 and Compound 2 were each formulated with dimyristoylphosphatidylcholine (DMPC) at a 30:70 drug to lipid molar ratio. Liposomes were synthesized according to Example 2 in PBS.
# Splenocytes from naïve C57BL/6 mice were stained with CFSE, prepared, cultured, and dosed. Cells were seeded at 2×10^5 cells/well. Cells were dosed with each compound from 48 μM to 1.5 μM at a log 2 dilution scheme. Cells were incubated for 72 hours before phenotyping for FoxP3^+/TIM3^+ CD4 T-cells. Flow cytometer analysis was performed to assess changes in percent FoxP3^+/TIM3^+ CD4 T-cells as a function of treatment and dose. Concentration versus response was fitted to a four- or five-parameter log-logistic model (using the “drc” package in “R”). The EC50 and EC90 values were obtained by model fitting.
# [2] = test system: FoxP3^+/CD4^+ T-cells; assay: Splenocyte flow cytometry at end of EAE study; format: in vivo, mice
# Method: At the end of the study, spleens were collected from a representative sample of mice from each group for splenocyte analysis. A single-cell suspension was prepared for cellular phenotyping by flow cytometry. Cells were stained and gated for CD4^+T-cells. Percent FoxP3^+/CD4^+ T-cells were evaluated by flow cytometry.
# [3] = test system: FoxP3^+/CD4^+ T-cells; assay: Pharmacodynamic effects of a single PO dose in mice (splenocyte phenotyping); format: in vivo; conditions: for percentage of FoxP3+/CD4+ T-cells, mean value: single oral gavage, 10:90 Compound 2:DMPC
# Method: Compound 2 was dissolved in DMSO and formulated with 1,2-dimyristoyl-sn-glycero-3-phosphocholine (DMPC) at a molar ratio of 10:90 Compound 2:DMPC, as described in Example 2. Animals were dosed according to Table 7.
# To evaluate the PD effects of a single dose of Compound 2 in mice, the animals were administered a single oral gavage as per their group assignment (Table 7). Five days after the oral dose, the animals were sacrificed and their spleens were collected for T-cell phenotyping. The study included an ex vivo analysis followed by a dose-response analysis (FIG. 4A). The spleens collected for splenocyte analysis were prepared into a single-cell suspension for cellular phenotyping by flow cytometry (eBioscience, Inc., San Diego, CA). Cells were stained and gated for CD4. Percent FoxP3^+/CD4^+ T-cells were evaluated using flow cytometry. A dose versus response curve was fitted to a four- or five-parameter log-logistic model (using the “drc” package in “R”). The EC50 and EC90 values were obtained by model fitting.
# [4] = test system: MOG35-55-Induced Murine EAE Model; assay: MOG35-55-induced murine EAE model, prophylactic and therapeutic treatment; format: in vivo, mice
# Method: Compound 2 was formulated with 1,2-distearoyl-sn-glycero-3-phosphocholine (DSPC) at a molar ratio of 3.75:96.25 Compound 2:DSPC. Two test articles were formulated and tested. The first formulation was made with Compound 2:DSPC with MOG35-55, referred to as Compound 2/MOG35-55. Another formulation was made without […], and is referred to as Compound 2. […] The ratio of Compound 2 to DSPC was chosen based on in vitro dose-response studies. Liposomes were prepared as described in Example 2, in PBS and extruded through a […] filter. Animals were dose with 100 μl of 42 μM Compound 2 or 100 μl of 42 μM/1 μg Compound 2/MOG35-55 per mouse PO QD. This dose was selected based on in vitro dose-response analysis.
# In the active EAE model, mice are immunized with MOG35-55 peptide emulsified in Complete Freund's Adjuvant (CFA) by subcutaneous injection at the tail base (0.1 mL of emulsion/mouse) under anesthesia. On the day of injection (Day 0) and 2 days later, mice receive an intraperitoneal injection of Pertussis Toxin (PT) in PBS at 600 ng/mouse/dose (0.1 mL).
# Symptoms typically develop in mice 9-14 days after immunization (Day 0). Daily observation and scoring of mice start on Day 9 and continue until the end of the study. Table 10 details the expected clinical symptoms and the scoring criteria used in this study.
# Mice were dosed with 100 μl of 42 μM Compound 2 or 100 μl of 42 μM of Compound 2 co-formulated with 1 μg of MOG35-55 (Compound 2/MOG35-55) orally QD for the duration of the study.
# To evaluate the therapeutic effects of Compound 2, treatment was initiated after the first clinical symptoms were observed. […] The treatment arm received 100 μl of 42 μM Compound 2 PO QD for the remainder of the study. Mice in all groups were monitored and scored daily for clinical symptoms. Once a mouse reached a score of five as per Table 11 or was found dead in the cage it was marked as an event in the survival analysis.
# [5] = mouse treated after the onset of symptoms
# [6] = four-parameter dose-response model, percent FoxP3+/CD4+ T-cells, single oral dose
# [7] = four-parameter dose-response model, single oral dose, 100 μl/mouse
smiles,measurement,setting,value
"CCCCCCCCCCCCCCCCOC(=O)NC[C@H](N)C(=O)O [Compound 1, (S)-2-amino-3-(((hexadecyloxy)carbonyl)amino) propanoic acid]",increase in FoxP3+/TIM3+ CD4 T-cells over low dose,[1]; 10 μM,126%
same,change in FoxP3+/TIM3+ CD4 T-cells with dose,[1],dose-dependent increase
same,cell appearance via microscope at end of incubation,"[1]; 48 μM, 72 hours",did not look healthy
same,EC50,[1]; 72 hours,13.4 µM
same,EC90,[1]; 72 hours,15 µM
same,"FoxP3+/TIM3+ double positive CD4 T-cells, mean value","[1]; high dose, 72 hours",8.26%
same,"FoxP3+/TIM3+ double positive CD4 T-cells, mean value","[1]; low dose, 72 hours",3.65%
"CCCCCCCCCCCCCCCCCC(=O)NC[C@H](N)C(=O)O [Compound 2, (S)-2-amino-3-stearamidopropanoic acid]",increase of Foxp3+/CD4+ T-cells over the surviving mouse in the untreated group,[2]; [5],715%
same,percent Foxp3+/CD4+ T-cell,[2]; [5],26.1%
same,increase of Foxp3+/CD4+ T-cells over control,[2]; prophylactic group,225%
same,percent of Foxp3+/CD4+ T-cells,"[2]; prophylactic group, end of study, control 3.20%",10.4%
same,"E0 (model estimated), Mean",[3]; [6],3.3
same,"Emax (model estimated), Mean",[3]; [6],12.1%
same,ED50,[3]; [7],43.1 µM
same,ED90,[3]; [7],281.0 µM
same,"percentage of FoxP3+/CD4+ T-cells, mean value","[3]; high dose group, 5 days",11.53%
same,"percentage of FoxP3+/CD4+ T-cells, mean value","[3]; low dose group, 5 days",3.87%
same,"increase of FoxP3+/CD4+ T-cells (T-regs), high dose group compared to low dose group","[3]; single oral dose, 5 days",219%
same,increase in FoxP3+/TIM3+ CD4 T-cells over low dose,[1]; 30 μM,129%
same,toxicity in vitro,[1]; 30 µM dose,less toxicity in vitro compared to Compound 1
same,change in FoxP3+/TIM3+ CD4 T-cells with dose,[1],dose-dependent increase
same,EC50,[1]; 72 hours,14.6 µM
same,EC90,[1]; 72 hours,17.8 µM
same,"FoxP3+/TIM3+ double positive CD4 T-cells, mean value","[1]; high dose, 72 hours",7.36%
same,"FoxP3+/TIM3+ double positive CD4 T-cells, mean value","[1]; low dose, 72 hours",3.21%
same,maximum efficacious dose in vitro,[1]; preliminary data,42 µM
same,mean clinical score by end of the study,[4]; prophylactic,2.1
same,"disease onset, day after immunization","[4]; prophylactic, 100 μl of 42 μM PO QD from four days after immunization, control day 9",12 days
same,mean clinical score at peak symptoms,"[4]; prophylactic, day 17, control 4.77",2.6
same,day by which all animals showed symptoms,"[4]; prophylactic, control 11",13 days
same,delay in disease progression after disease onset,"[4]; therapeutic, 100 μl of 42 μM PO QD from clinical score of 1",one-day
same,mean clinical score lower than in the untreated arm,"[4]; therapeutic, by the end of the study",54%
same,mean clinical score at peak symptoms,"[4]; therapeutic, day 6 after the onset of symptoms, control 4.77 on day 7",2.8
same,mean clinical score after the peak,"[4]; therapeutic, day 10 after the onset of symptoms",2.33
same,animals that spontaneously died or were euthanized (survival analysis),[4]; untreated group eight out of nine,zero out of nine
